According to article PMC9979339 (ACS Omega, 2023):
Entries after “also recorded” stand apart in the source; their conditions may differ. Each block holds one compound with its values, some of them ahead of it.

Legend:
[1] = DPPH free radical scavenging assay; type: biochemical; settings: for % DPPH scavenging mean ± SEM: n = 3; for IC50: read-out: IC50 DPPH scavenging
ABTS scavenging assay = type: biochemical; settings: for % ABTS scavenging mean ± SEM: n = 3; for IC50: read-out: IC50 ABTS scavenging
[2] = target: electric eel acetylcholinesterase (type-VI-S) (Electrophorus electricus, UniProt O42275); experiment: AChE inhibition, Ellman's colorimetric method; type: biochemical; settings: for IC50: IC50 AChE inhibition, in vitro; for inhibition at 31.25 µM: read-out: % AChE inhibition mean ± SEM, 31.25 μM, n = 3; for inhibition at 62.5 µM: read-out: % AChE inhibition mean ± SEM, 62.5 μM, n = 3; for inhibition at 125 µM: read-out: % AChE inhibition mean ± SEM, 125 μM, n = 3; for inhibition at 250 µM: read-out: % AChE inhibition mean ± SEM, 250 μM, n = 3; for inhibition at 500 µM: read-out: % AChE inhibition mean ± SEM, 500 μM, n = 3; for inhibition at 1000 µM: read-out: % AChE inhibition mean ± SEM, 1000 μM, n = 3
Sequence of electric eel acetylcholinesterase (type-VI-S) (O42275 24-633): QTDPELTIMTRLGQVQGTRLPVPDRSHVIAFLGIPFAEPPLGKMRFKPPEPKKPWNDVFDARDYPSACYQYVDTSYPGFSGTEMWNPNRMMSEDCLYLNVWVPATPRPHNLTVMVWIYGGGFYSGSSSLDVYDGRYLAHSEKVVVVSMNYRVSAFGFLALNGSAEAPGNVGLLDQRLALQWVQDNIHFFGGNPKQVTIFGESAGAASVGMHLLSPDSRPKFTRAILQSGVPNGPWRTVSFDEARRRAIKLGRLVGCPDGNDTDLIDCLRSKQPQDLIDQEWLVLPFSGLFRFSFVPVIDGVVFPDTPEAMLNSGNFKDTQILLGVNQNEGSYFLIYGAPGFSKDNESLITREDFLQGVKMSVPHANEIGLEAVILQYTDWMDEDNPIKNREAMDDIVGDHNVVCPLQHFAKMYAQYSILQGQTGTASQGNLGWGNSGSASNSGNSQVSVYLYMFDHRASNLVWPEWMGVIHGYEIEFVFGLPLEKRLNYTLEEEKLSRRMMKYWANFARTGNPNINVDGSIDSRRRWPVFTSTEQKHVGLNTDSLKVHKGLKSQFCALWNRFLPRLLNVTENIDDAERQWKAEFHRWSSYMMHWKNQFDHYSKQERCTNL

[3] = target: equine butyrylcholinesterase (Equus caballus, UniProt P81908); experiment: BuChE inhibition, Ellman's colorimetric method; type: biochemical; settings: for IC50: IC50 BuChE inhibition, in vitro; for inhibition at 31.25 µM / inhibition at 62.5 µM / inhibition at 125 µM / inhibition at 250 µM / inhibition at 500 µM / inhibition at 1000 µM: read-out: % BuChE inhibition mean ± SEM
Sequence of equine butyrylcholinesterase (P81908 whole entry): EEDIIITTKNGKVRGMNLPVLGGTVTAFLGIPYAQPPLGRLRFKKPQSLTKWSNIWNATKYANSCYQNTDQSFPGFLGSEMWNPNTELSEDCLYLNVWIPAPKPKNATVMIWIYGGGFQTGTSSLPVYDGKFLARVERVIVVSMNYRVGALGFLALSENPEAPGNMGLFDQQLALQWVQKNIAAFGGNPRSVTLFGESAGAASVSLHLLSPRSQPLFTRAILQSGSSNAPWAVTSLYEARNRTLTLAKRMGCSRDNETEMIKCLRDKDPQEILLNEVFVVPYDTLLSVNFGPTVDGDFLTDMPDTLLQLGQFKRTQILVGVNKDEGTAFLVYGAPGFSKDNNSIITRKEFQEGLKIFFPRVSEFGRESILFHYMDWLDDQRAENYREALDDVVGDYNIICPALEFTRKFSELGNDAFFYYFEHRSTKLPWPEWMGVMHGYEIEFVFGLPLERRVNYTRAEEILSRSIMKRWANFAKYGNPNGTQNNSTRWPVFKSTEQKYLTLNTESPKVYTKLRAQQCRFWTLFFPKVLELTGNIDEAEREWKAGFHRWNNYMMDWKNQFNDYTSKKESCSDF

[4] = tested on: scopolamine-induced memory impairment in mice; experiment: Y-maze spontaneous alternation, scopolamine-induced amnesia; type: in vivo
[5] = tested on: scopolamine-induced memory impairment in mice; experiment: Novel object recognition test; type: in vivo
[6] = 30 mg/kg plus scopolamine 1 mg/kg
[7] = 1, 10 and 30 mg/kg plus scopolamine 1 mg/kg
[8] = 10 and 30 mg/kg plus scopolamine 1 mg/kg

IC50 [1]: 61 µM
IC50 (ABTS scavenging assay): 125 µM
SMILES: O=C1O[C@H]([C@@H](O)CO)C(O)=C1O [ascorbic acid, reference compound]
% DPPH scavenging mean ± SEM ([1]; 31.25 μM): 29.20 ± 1.03%
% DPPH scavenging mean ± SEM ([1]; 62.5 μM): 47.65 ± 0.2a %
% DPPH scavenging mean ± SEM ([1]; 125 μM): 52.56 ± 0.69%
% DPPH scavenging mean ± SEM ([1]; 250 μM): 65.19 ± 0.29%
% DPPH scavenging mean ± SEM ([1]; 500 μM): 74.44 ± 0.48%
% DPPH scavenging mean ± SEM ([1]; 1000 μM): 85.08 ± 0.32%
% ABTS scavenging mean ± SEM (ABTS scavenging assay; 31.25 μM): 35.27 ± 0.67%
% ABTS scavenging mean ± SEM (ABTS scavenging assay; 62.5 μM): 44.58 ± 1.11%
% ABTS scavenging mean ± SEM (ABTS scavenging assay; 125 μM): 51.89 ± 0.59%
% ABTS scavenging mean ± SEM (ABTS scavenging assay; 250 μM): 63.11 ± 1.22%
% ABTS scavenging mean ± SEM (ABTS scavenging assay; 500 μM): 73.22 ± 0.21%
% ABTS scavenging mean ± SEM (ABTS scavenging assay; 1000 μM): 82.14 ± 0.19%

SMILES: O=C1c2ccccc2C(=O)N1c1ccc(C(F)(F)F)cc1 [compound 1, 2-(4-(trifluoromethyl)phenyl)isoindoline-1,3-dione]
% DPPH scavenging mean ± SEM ([1]; 31.25 μM): 30.21 ± 0.17%
% DPPH scavenging mean ± SEM ([1]; 125 μM): 52.16 ± 0.15%
% DPPH scavenging mean ± SEM ([1]; 250 μM): 67.85 ± 0.18%
% DPPH scavenging mean ± SEM ([1]; 500 μM): 76.65 ± 0.30%
% DPPH scavenging mean ± SEM ([1]; 1000 μM): 85.87 ± 0.23%
IC50 [1]: 105 µM
% ABTS scavenging mean ± SEM (ABTS scavenging assay; 31.25 μM): 11.47 ± 0.54%
% ABTS scavenging mean ± SEM (ABTS scavenging assay; 62.5 μM): 28.21 ± 0.32%
% ABTS scavenging mean ± SEM (ABTS scavenging assay; 125 μM): 42.10 ± 1.11%
% ABTS scavenging mean ± SEM (ABTS scavenging assay; 250 μM): 49.72 ± 0.72%
% ABTS scavenging mean ± SEM (ABTS scavenging assay; 500 μM): 66.65 ± 0.61%
% ABTS scavenging mean ± SEM (ABTS scavenging assay; 1000 μM): 70.55 ± 0.32%
IC50 (ABTS scavenging assay): 205 µM
IC50 [2]: 10 µM
inhibition at 31.25 µM [2]: 55.68 ± 0.52%
inhibition at 62.5 µM [2]: 61.77 ± 0.49%
inhibition at 125 µM [2]: 77.4 ± 0.9%
inhibition at 250 µM [2]: 84.4 ± 1.39%
inhibition at 500 µM [2]: 81.44 ± 0.29%
inhibition at 1000 µM [2]: 98.51 ± 0.65%
IC50 [3]: 80 µM
inhibition at 31.25 µM [3]: 41.39 ± 0.07%
inhibition at 62.5 µM [3]: 47.29 ± 0.12%
inhibition at 125 µM [3]: 54.29 ± 0.19%
inhibition at 250 µM [3]: 61.76 ± 0.49%
inhibition at 500 µM [3]: 67.4 ± 0.89%
inhibition at 1000 µM [3]: 75.4 ± 1.39%
Y-maze spontaneous alternation vs scopolamine group ([4]; 10 and 30 mg/kg plus scopolamine): significant increase
NORT long-term memory: % discrimination index [5, 6]: significantly higher
NORT short-term memory: exploration of novel vs familiar object in test phase [5, 7]: statistically not significant
NORT long-term memory: % discrimination index [5, 8]: significantly higher
NORT short-term memory: % discrimination index vs scopolamine alone [5, 8]: significantly greater; also recorded: significantly higher

SMILES: O=C1c2ccccc2C(=O)N1c1ccc(Br)cc1 [compound 2, 2-(4-bromophenyl)isoindoline-1,3-dione]
% DPPH scavenging mean ± SEM ([1]; 31.25 μM): 15.21 ± 0.19%
% DPPH scavenging mean ± SEM ([1]; 125 μM): 40.16 ± 0.14%
% DPPH scavenging mean ± SEM ([1]; 250 μM): 47.85 ± 0.17%
% DPPH scavenging mean ± SEM ([1]; 500 μM): 56.65 ± 0.30%
% DPPH scavenging mean ± SEM ([1]; 1000 μM): 69.87 ± 0.23%
IC50 [1]: 340 µM
% ABTS scavenging mean ± SEM (ABTS scavenging assay; 31.25 μM): 10.47 ± 0.25%
% ABTS scavenging mean ± SEM (ABTS scavenging assay; 62.5 μM): 22.12 ± 0.32%
% ABTS scavenging mean ± SEM (ABTS scavenging assay; 125 μM): 34.11 ± 1.21%
% ABTS scavenging mean ± SEM (ABTS scavenging assay; 250 μM): 41.72 ± 0.81%
% ABTS scavenging mean ± SEM (ABTS scavenging assay; 500 μM): 57.76 ± 0.75%
% ABTS scavenging mean ± SEM (ABTS scavenging assay; 1000 μM): 62.57 ± 0.50%
IC50 (ABTS scavenging assay): 350 µM
IC50 [2]: 140 µM
inhibition at 31.25 µM [2]: 38.36 ± 0.22%
inhibition at 62.5 µM [2]: 41.35 ± 0.13%
inhibition at 125 µM [2]: 47.14 ± 0.09%
inhibition at 250 µM [2]: 54.33 ± 0.22%
inhibition at 500 µM [2]: 61.1 ± 1.95%
inhibition at 1000 µM [2]: 66.7 ± 5.14%
IC50 [3]: 50 µM
inhibition at 31.25 µM [3]: 45.45 ± 0.22%
inhibition at 62.5 µM [3]: 51.34 ± 0.03%
inhibition at 125 µM [3]: 56.28 ± 0.03%
inhibition at 250 µM [3]: 64.36 ± 0.03%
inhibition at 500 µM [3]: 71.25 ± 0.12%
inhibition at 1000 µM [3]: 78.2 ± 0.07%
NORT short-term memory: exploration of novel vs familiar object in test phase [5, 7]: did not exert a significant effect

SMILES: Cc1ccc(N2C(=O)c3ccccc3C2=O)c(C)c1 [compound 3, 2-(2,4-dimethylphenyl)isoindoline-1,3-dione]
% DPPH scavenging mean ± SEM ([1]; 31.25 μM): 25.21 ± 0.15%
% DPPH scavenging mean ± SEM ([1]; 125 μM): 40.16 ± 0.15%
% DPPH scavenging mean ± SEM ([1]; 250 μM): 55.85 ± 0.18%
% DPPH scavenging mean ± SEM ([1]; 500 μM): 77.65 ± 0.31%
% DPPH scavenging mean ± SEM ([1]; 1000 μM): 80.87 ± 0.25%
IC50 [1]: 150 µM
% ABTS scavenging mean ± SEM (ABTS scavenging assay; 31.25 μM): 18.47 ± 0.83%
% ABTS scavenging mean ± SEM (ABTS scavenging assay; 62.5 μM): 35.22 ± 0.50%
% ABTS scavenging mean ± SEM (ABTS scavenging assay; 125 μM): 46.11 ± 1.21%
% ABTS scavenging mean ± SEM (ABTS scavenging assay; 250 μM): 54.72 ± 0.80%
% ABTS scavenging mean ± SEM (ABTS scavenging assay; 500 μM): 68.76 ± 0.72%
% ABTS scavenging mean ± SEM (ABTS scavenging assay; 1000 μM): 73.57 ± 0.41%
IC50 (ABTS scavenging assay): 220 µM
% AChE inhibition mean ± SEM ([2]; 1000 μM, n = 3): 95.24 ± 0.12%
IC50 [2]: 18 µM
inhibition at 31.25 µM [2]: 65.2 ± 0.75%
inhibition at 62.5 µM [2]: 52.5 ± 0.92%
inhibition at 125 µM [2]: 77.32 ± 0.21%
inhibition at 250 µM [2]: 84.18 ± 0.1%
inhibition at 500 µM [2]: 91.47 ± 0.26%
inhibition at 1000 µM [2]: 95.7 ± 0.12%
IC50 [3]: 11 µM
inhibition at 31.25 µM [3]: 59.49 ± 0.11%
inhibition at 62.5 µM [3]: 63.41 ± 0.14%
inhibition at 125 µM [3]: 69.37 ± 0.02%
inhibition at 250 µM [3]: 75.65 ± 0.03%
inhibition at 500 µM [3]: 82.4 ± 0.06%
inhibition at 1000 µM [3]: 87.29 ± 0.03%
NORT short-term memory: % discrimination index vs scopolamine alone [5, 6]: significantly higher
NORT long-term memory: % discrimination index [5, 8]: significantly higher

SMILES: COc1cc2c(cc1OC)C(=O)C(CC1CCN(Cc3ccccc3)CC1)C2 (stereo not shown) [donepezil, reference compound]
inhibition at 31.25 µM [3]: 69.31 ± 0.06%
inhibition at 62.5 µM [3]: 74.42 ± 0.06%
inhibition at 125 µM [3]: 78.39 ± 0.06%
inhibition at 250 µM [3]: 82.49 ± 0.08%
inhibition at 500 µM [3]: 86.42 ± 0.11%
inhibition at 1000 µM [3]: 91.29 ± 0.06%
Y-maze spontaneous alteration (% alteration) ([4]; donepezil 2 mg/kg plus scopolamine, n = 8): 83.83 ± 2.64
NORT short-term memory: exploration of novel vs familiar object in test phase ([5]; donepezil 2 mg/kg plus scopolamine 1 mg/kg): statistically not significant
